In PMC12388242, “Cytotoxic Peptidic Metabolites Isolated from the Soil-Derived Fungus Trichoderma atroviride” (Molecules, 2025):
Values joined by “and” are separate entries in the source; they are usually repeats but may differ in a detail not shown here. Equal values may be shown once. Read-outs that look alike come from different tables or passages of the source. Where a SMILES comes first, the peptide text is derived from it. [ ]: non-standard residue; d: D form. The star is where a group is joined. X2 = CO[C@@H]1NC(=O)CC[C@@H]1N*; X3 = O=C1CC[C@H](N*)[C@@H](O)N1; X1 = O=C1CC[C@H](N*)[C@H](O)N1; Valol = CC(C)[C@@H](CO)N*; Aib = CC(C)(N)C(=O)O

What was measured:
[1] = system: HCT-8 (colon cancer) cells; assay: MTT cell viability assay, HCT-8 cells; settings: for IC50: read-out: IC50 against HCT-8 (Colon Cancer)
Procedure: (§1) HCT-8 (colorectal carcinoma), and SK-OV-3 (ovarian cancer) cell lines were obtained from the American Type Culture Collection (ATCC; Manassas, VA, USA). The cells were cultured in RPMI-1640 medium (Cytiva, Marlborough, MA, USA) supplemented with 10% fetal bovine serum (FBS), 100 U/mL penicillin, and streptomycin, and incubated in a humidified atmosphere with 5% CO2 at 37 °C [23].
(§2) Cell viability was determined using the 3-(4,5-dimethylthiazol-2-yl)-2,5-diphenyltetrazolium bromide (MTT) colorimetric assay (Sigma Chemical Co., St. Louis, MO). Cells were seeded in 96-well plates and incubated at 37 °C for 24 h. Subsequently, cells were treated with isolated compounds at concentrations of 2, 20, and 100 μM for an additional 24 h. After treatment, 25 μL of MTT solution (5 mg/mL; Thermo Fisher Scientific, Waltham, MA, USA) was added to each well and incubated for 3 h. The resulting formazan crystals were dissolved in 100 μL of dimethyl sulfoxide, and the absorbance was measured at 550 nm using an ELx808 microplate reader (BioTek Instruments Inc., Winooski, VT, USA).

[2] = system: SK-OV-3 (ovarian cancer) cells; assay: MTT cell viability assay, SK-OV-3 cells; settings: for IC50: read-out: IC50 against SK-OV-3 (Ovarian Cancer)
Procedure: as §1, §2

[3] = MTT colorimetric assay, 96-well plates, treated at 2, 20, and 100 μM for 24 h, absorbance at 550 nm, mean ± standard deviation from triplicate experiments

CC[C@H](C)[C@H](NC(=O)C(C)(C)NC(C)=O)C(=O)NC(C)(C)C(=O)N[C@@H](Cc1ccc(O)cc1)C(=O)NC(C)(C)C(=O)N[C@@H](CC(C)C)C(=O)NC(C)(C)C(=O)N[C@@H](C)C(=O)NC(C)(C)C(=O)NC(C)(C)C=O [Compound 11, bukhansantaibal A] (Ac-[Aib]I[Aib]Y[Aib]L[Aib]A[Aib][Aib]-aldehyde) was tested, and the “cytotoxicity against HCT-8 cells, in words” value [1] was “inactivity”, the IC50 [1, 3] was over 50 µM and the “cytotoxicity against SK-OV-3 cells, in words” value [2] was “inactivity”. For the same compound, the IC50 [2, 3] was over 50 µM.

For CC[C@H](C)[C@H](NC(=O)C(C)(C)NC(=O)[C@@H](NC(=O)[C@@H]1CCCN1C(=O)C(C)(C)NC(=O)[C@H](CC(C)C)NC(=O)[C@H](CO)NC(=O)C(C)(C)NC(=O)C(C)(C)NC(=O)C(C)(C)NC(=O)[C@H](CCC(N)=O)NC(=O)C(C)(C)NC(=O)C(C)(C)NC(=O)[C@H](C)NC(=O)CNC(=O)[C@H](Cc1ccccc1)NC(C)=O)C(C)C)C(=O)N[C@H]1CCC(=O)N[C@H]1OC [Compound 10, bukhansantaibol J] (Ac-FGA[Aib][Aib]Q[Aib][Aib][Aib]SL[Aib]PV[Aib]I-X2), the “cytotoxicity against HCT-8 cells, in words” value [1] was “marked loss of cytotoxicity”, the IC50 [1, 3] was over 50 µM and the “cytotoxicity against SK-OV-3 cells, in words” value [2] was “marked loss of cytotoxicity”. For the same compound, the IC50 [2, 3] was over 50 µM.

With CC[C@H](C)[C@H](NC(=O)C(C)(C)NC(=O)[C@@H](NC(=O)[C@@H]1CCCN1C(=O)C(C)(C)NC(=O)[C@H](CC(C)C)NC(=O)[C@H](CO)NC(=O)C(C)(C)NC(=O)C(C)(C)NC(=O)C(C)(C)NC(=O)[C@H](CCC(N)=O)NC(=O)C(C)(C)NC(=O)C(C)(C)NC(=O)[C@H](C)NC(=O)CNC(=O)[C@H](Cc1ccccc1)NC(C)=O)C(C)C)C(=O)N[C@@H](CCC(N)=O)C(=O)N[C@@H](CCC(N)=O)C(=O)N[C@H](CO)C(C)C [Compound 3, bukhansantaibol C] (Ac-FGA[Aib][Aib]Q[Aib][Aib][Aib]SL[Aib]PV[Aib]IQQ-Valol) the IC50 [1, 3] was 18.5 ± 0.6 µM and the IC50 [2, 3] was 19.6 ± 0.1 µM.

With CC[C@H](C)[C@H](NC(=O)C(C)(C)NC(=O)[C@@H](NC(=O)[C@@H]1CCCN1C(=O)C(C)(C)NC(=O)[C@H](CC(C)C)NC(=O)[C@H](CO)NC(=O)C(C)(C)NC(=O)C(C)(C)NC(=O)C(C)(C)NC(=O)[C@H](CCC(N)=O)NC(=O)C(C)(C)NC(=O)C(C)(C)NC(=O)[C@H](C)NC(=O)CNC(=O)[C@H](Cc1c[nH]c2ccccc12)NC(C)=O)C(C)C)C(=O)N[C@H]1CCC(=O)N[C@H]1OC [Compound 9, bukhansantaibol I] (Ac-WGA[Aib][Aib]Q[Aib][Aib][Aib]SL[Aib]PV[Aib]I-X2) the “cytotoxicity against HCT-8 cells, in words” value [1] was “marked loss of cytotoxicity”, the IC50 [1, 3] was over 50 µM and the “cytotoxicity against SK-OV-3 cells, in words” value [2] was “marked loss of cytotoxicity”. For the same compound, the IC50 [2, 3] was over 50 µM.

Work on CC[C@H](C)[C@H](NC(=O)C(C)(C)NC(=O)[C@@H](NC(=O)[C@@H]1CCCN1C(=O)C(C)(C)NC(=O)[C@H](CC(C)C)NC(=O)[C@H](CO)NC(=O)C(C)(C)NC(=O)C(C)(C)NC(=O)C(C)(C)NC(=O)[C@H](CCC(N)=O)NC(=O)C(C)(C)NC(=O)C(C)(C)NC(=O)[C@H](C)NC(=O)CNC(=O)[C@H](Cc1c[nH]c2ccccc12)NC(C)=O)C(C)C)C(=O)N[C@H]1CCC(=O)N[C@H]1O [Compound 7, bukhansantaibol G] (Ac-WGA[Aib][Aib]Q[Aib][Aib][Aib]SL[Aib]PV[Aib]I-X1) yielded an IC50 [1, 3] of over 50 µM and an IC50 [2, 3] of over 50 µM.

For CC[C@H](C)[C@H](NC(=O)C(C)(C)NC(C)=O)C(=O)NC(C)(C)C(=O)N[C@@H](Cc1ccc(O)cc1)C(=O)NC(C)(C)C(=O)N[C@H](C(=O)NC(C)(C)C(=O)N[C@@H](C)C(=O)NC(C)(C)C(=O)NC(C)(C)C=O)[C@@H](C)CC [Compound 12, bukhansantaibal B] (Ac-[Aib]I[Aib]Y[Aib]I[Aib]A[Aib][Aib]-aldehyde), the “cytotoxicity against HCT-8 cells, in words” value [1] was “inactivity”, the IC50 [1, 3] was over 50 µM and the “cytotoxicity against SK-OV-3 cells, in words” value [2] was “inactivity”. It also gave an IC50 [2, 3] of over 50 µM.

For CC(=O)N[C@@H](Cc1c[nH]c2ccccc12)C(=O)NCC(=O)N[C@@H](C)C(=O)NC(C)(C)C(=O)NC(C)(C)C(=O)N[C@@H](CCC(N)=O)C(=O)NC(C)(C)C(=O)NC(C)(C)C(=O)NC(C)(C)C(=O)N[C@@H](CO)C(=O)N[C@@H](CC(C)C)C(=O)NC(C)(C)C(=O)N1CCC[C@H]1C(=O)N[C@H](C(=O)NC(C)(C)C(=O)N[C@@H](CC(C)C)C(=O)N[C@@H](CCC(N)=O)C(=O)N[C@@H](CCC(N)=O)C(=O)N[C@H](CO)C(C)C)C(C)C [Compound 2, bukhansantaibol B] (Ac-WGA[Aib][Aib]Q[Aib][Aib][Aib]SL[Aib]PV[Aib]LQQ-Valol), the IC50 [1, 3] was 11.7 ± 0.8 µM and the IC50 [2, 3] was 13.8 ± 1 µM.

Work on CC[C@H](C)[C@H](NC(=O)C(C)(C)NC(=O)[C@@H](NC(=O)[C@@H]1CCCN1C(=O)C(C)(C)NC(=O)[C@H](CC(C)C)NC(=O)[C@H](CO)NC(=O)C(C)(C)NC(=O)C(C)(C)NC(=O)C(C)(C)NC(=O)[C@H](CCC(N)=O)NC(=O)C(C)(C)NC(=O)C(C)(C)NC(=O)[C@H](C)NC(=O)CNC(=O)[C@H](Cc1c[nH]c2ccccc12)NC(C)=O)C(C)C)C(=O)N[C@H]1CCC(=O)N[C@@H]1O [Compound 8, bukhansantaibol H] (Ac-WGA[Aib][Aib]Q[Aib][Aib][Aib]SL[Aib]PV[Aib]I-X3) yielded an IC50 [1, 3] of over 50 µM and an IC50 [2, 3] of over 50 µM.

With CC[C@H](C)[C@H](NC(=O)C(C)(C)NC(=O)[C@@H](NC(=O)[C@@H]1CCCN1C(=O)C(C)(C)NC(=O)[C@H](CC(C)C)NC(=O)[C@H](CO)NC(=O)C(C)(C)NC(=O)C(C)(C)NC(=O)C(C)(C)NC(=O)[C@H](CCC(N)=O)NC(=O)C(C)(C)NC(=O)C(C)(C)NC(=O)[C@H](C)NC(=O)CNC(=O)[C@H](Cc1ccccc1)NC(C)=O)C(C)C)C(=O)N[C@@H](CCC(=O)O)C(=O)N[C@@H](CCC(N)=O)C(=O)N[C@H](CO)C(C)C [Compound 6, bukhansantaibol F] (Ac-FGA[Aib][Aib]Q[Aib][Aib][Aib]SL[Aib]PV[Aib]IEQ-Valol) the IC50 [1, 3] was over 50 µM and the IC50 [2, 3] was over 50 µM.

CC[C@H](C)[C@H](NC(=O)C(C)(C)NC(=O)[C@@H](NC(=O)[C@@H]1CCCN1C(=O)C(C)(C)NC(=O)[C@H](CC(C)C)NC(=O)[C@H](C)NC(=O)C(C)(C)NC(=O)C(C)(C)NC(=O)C(C)(C)NC(=O)[C@H](CCC(N)=O)NC(=O)C(C)(C)NC(=O)C(C)(C)NC(=O)[C@H](C)NC(=O)CNC(=O)[C@H](Cc1c[nH]c2ccccc12)NC(C)=O)C(C)C)C(=O)N[C@@H](CCC(N)=O)C(=O)N[C@@H](CCC(N)=O)C(=O)N[C@H](CO)C(C)C [Compound 4, bukhansantaibol D] (Ac-WGA[Aib][Aib]Q[Aib][Aib][Aib]AL[Aib]PV[Aib]IQQ-Valol) was tested, and the IC50 [1, 3] was < 10 µM and 7.7 µM and the IC50 [2, 3] was < 10 µM and 5.7 µM.

With COc1cc([C@@H]2c3cc4c(cc3[C@@H](O[C@@H]3O[C@@H]5CO[C@@H](C)O[C@H]5[C@H](O)[C@H]3O)[C@H]3COC(=O)[C@H]23)OCO4)cc(OC)c1O [Etoposide, reference compound] the IC50 ([1]; Homo sapiens, HCT-8, 24 h) was 33.7 ± 1.5 µM and the IC50 ([2]; Homo sapiens, SK-OV-3, 24 h) was 37.3 ± 1.8 µM.
